The values that follow come from US9434711B2 (Janssen Pharmaceutica, NV, priority 2007, dated 2016).

For assay [1], the target named is T1, canine TRPM8 (Canis lupus familiaris, UniProt Q1A7N1). Nature of the assay: In Vitro Canine TRPM8 Functional Assay (Ca2+ fluorescence, icilin activation). The class given is cell-based. To be noted: for inhibition at 0.2 µM / % Inh @ 0.2 (μM): compound at 0.2 μM, canine TRPM8, icilin activation; for inhibition at 0.2 µM: read-out: % Inh @ 0.2; for IC50: HEK293 cells stably expressing canine TRPM8, icilin activation, eight-point dose-response, read-out: IC50. Summed up: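 Readout is the intracellular Ca2+ fluorescence change, measured by FLIPR or FDSS, in HEK293 cells stably expressing canine TRPM8. Potency (EC50 or IC50) is fitted from eight concentrations averaged over quadruplicate wells.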
T1 sequence (Q1A7N1 1-1104): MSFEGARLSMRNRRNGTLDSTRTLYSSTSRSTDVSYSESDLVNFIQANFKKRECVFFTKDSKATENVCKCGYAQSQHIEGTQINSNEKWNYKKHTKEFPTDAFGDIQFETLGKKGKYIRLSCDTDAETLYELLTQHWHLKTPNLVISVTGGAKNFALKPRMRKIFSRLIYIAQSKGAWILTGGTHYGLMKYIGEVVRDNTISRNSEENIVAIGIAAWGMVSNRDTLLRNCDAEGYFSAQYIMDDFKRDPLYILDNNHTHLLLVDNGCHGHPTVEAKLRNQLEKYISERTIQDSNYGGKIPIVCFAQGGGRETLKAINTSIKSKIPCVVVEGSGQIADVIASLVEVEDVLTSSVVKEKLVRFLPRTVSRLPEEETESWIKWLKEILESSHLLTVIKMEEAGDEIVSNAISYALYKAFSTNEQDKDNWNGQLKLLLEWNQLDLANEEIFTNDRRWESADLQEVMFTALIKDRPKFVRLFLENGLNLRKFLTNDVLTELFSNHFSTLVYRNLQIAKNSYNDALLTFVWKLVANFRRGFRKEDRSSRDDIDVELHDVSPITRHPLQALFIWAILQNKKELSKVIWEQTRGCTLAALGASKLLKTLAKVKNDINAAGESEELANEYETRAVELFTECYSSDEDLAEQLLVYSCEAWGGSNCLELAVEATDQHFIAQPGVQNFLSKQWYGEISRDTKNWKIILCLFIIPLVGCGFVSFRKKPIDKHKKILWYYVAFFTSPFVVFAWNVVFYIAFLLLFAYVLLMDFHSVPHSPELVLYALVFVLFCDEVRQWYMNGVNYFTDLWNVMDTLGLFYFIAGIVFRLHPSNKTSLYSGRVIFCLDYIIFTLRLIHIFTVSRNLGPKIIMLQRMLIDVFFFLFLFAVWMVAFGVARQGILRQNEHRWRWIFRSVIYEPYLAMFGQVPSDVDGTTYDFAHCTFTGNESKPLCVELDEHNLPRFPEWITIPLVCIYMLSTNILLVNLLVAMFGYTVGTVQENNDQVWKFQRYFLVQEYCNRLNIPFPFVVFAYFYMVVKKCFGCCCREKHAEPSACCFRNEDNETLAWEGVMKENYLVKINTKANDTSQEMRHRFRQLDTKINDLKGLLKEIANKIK

The test system of assay [2] is Male Sprague Dawley rats. Nature of the assay: Inhibition of Icilin-Induced "Wet-Dog" Shakes in Rats. Format: in vivo, rat. The conditions noted are these: Na salt form; for ED50: Rattus norvegicus, po. The method, then:
Male Sprague Dawley rats (220-450 g, Charles River Labs, n=6-9/treatment) were used to evaluate the ability of selected compounds of the formula (I) to block icilin-induced “wet-dog” shakes (WDS). Compounds of the formula (I) were administered in an appropriate vehicle, such as hydroxypropyl-β-cyclodextrin (HPβCD), methocellulose, 10% Solutol, or H2O, or the like, by the appropriate route, i.p. or p.o., 30-120 minutes before icilin. Icilin was administered in PEG-400 or 10% solutol/H2O, at 1.0 or 3.0 mg/kg, i.p. and spontaneous “wet-dog” shakes were counted 10-20 minutes post-icilin. Results are presented as a percent inhibition of shakes, which was calculated as [1-(test compound WDS count/vehicle WDS count)]×100.

In assay [3] the test system is Male Sprague Dawley rats. Nature of the assay: Chronic Constriction Injury (CCI)-Induced Model of Neuropathic Pain, Acetone-Induced Hypersensitivity. The class given is in vivo, rat. To be noted: Na salt form; for inhibition in vivo at 30 mg/kg / Percent Inhibition: 30 mg/kg p.o. From the text:
Male Sprague Dawley rats (225-450 g; n=5-8/treatment) were used to evaluate the ability of selected compounds of the formula (I) to reverse CCI-induced cold hypersensitivity. Four loose ligatures of 4-0 chromic gut were surgically placed around the left sciatic nerve under inhalation anesthesia as described by Bennett et al (Bennett G J, Xie Y K. Pain 1988, 33(1): 87-107). Fourteen to 35 days following CCI surgery, subjects were placed in elevated observation chambers containing wire mesh floors and five applications of acetone (0.05 mL/application separated by approximately 5 minutes) were spritzed onto the plantar surface of the paw using a multidose syringe. An abrupt withdrawal or lifting of the paw was considered a positive response. The number of positive responses was recorded for each rat over the five trials. Following baseline withdrawal determinations, compounds of formula (I) are administered in an appropriate vehicle, such as hydroxypropyl-β-cyclodextrin (HP β CD), methylcellulose, Methocel, 10% Solutol, or H2O, or the like, by the appropriate route, i.p. or p.o. […] Results are presented as a percent inhibition of […], which was calculated for each subject as [1−(test compound withdrawals/pre-test withdrawals)]×100 and then averaged by treatment.

Assay [4] has as its target T1, canine TRPM8. Nature of the assay: TRPM8 Patch Clamp Assays (whole-cell, menthol or cold activation). The class given is cell-based. The conditions noted are these: cold stimulation. The method, then:
For patch clamp experiments, HEK293 cells are stably transfected with canine TRPM8 and cultured in DMEM supplemented with 10% fetal bovine serum, 100 units/ml penicillin, 100 μg/ml streptomycin and 1 mg/ml G418. Cells are maintained at 37° C. and in 5% CO2.
The extracellular solution contains (in mM): NaCl, 132; EGTA, 1; KCl, 5.4; MgCl2, 0.8; HEPES, 10; glucose, 10; pH=7.4. Recordings are performed using the conventional whole-cell patch clamp technique, 1-2 days after plating cells onto glass coverslips at densities appropriate for single cell recording. Currents are amplified by a patch clamp amplifier and filtered at 2 kHz (Axopatch 200B, Molecular Devices, Union City, Calif.). Menthol (100 μM) is applied to the cell at 0.5 ml/min via a gravity-fed perfusion system. Recordings involving menthol activation are performed at 22° C.
In experiments where temperatures are varied, temperature ramps are generated by cooling the perfusate in an in-line cooler (Model SC-20, Warner Instruments, Hamden, Conn.) controlled by a temperature controller (Model CL-100, Warner Instruments). The temperature in the vicinity of the recorded cell is measured with a custom-made miniature thermo-microprobe connected to a monitoring thermometer (Model TH-8, Physitemp, Clifton, N.J.), and sampled using Digidata 1322A and pClamp 9.0 (Molecular Devices), as are the currents concurrently measured in the whole-cell patch clamp mode. The current is continuously sampled (at 100 Hz) at a holding potential of −60 mV.
Compounds of the formula (I) are diluted from 10 mM DMSO stocks (stored at −20° C.) into an extracellular solution either containing 100 μM menthol or subjected to cooling. Increasing concentrations of a compound are applied to a cell in a cumulative manner and concentration-dependent responses are measured after steady-state activation is achieved by either 100 μM menthol or cooling to 10° C. A saturating concentration of a reference antagonist is applied at the end of an experiment (either in the presence of 100 μM menthol or 10° C. temperature) to establish the baseline from which all the other measurements are subtracted.
Percentage inhibition by a compound is calculated as follows:
100×(1−Icomp/I0); where Icomp and I0 are steady-state current amplitudes in either the presence or absence of a concentration of compounds of the formula (I).

Where [5] appears, read: 0.5 h, HPbCD, 30 min pre-icilin.
Setting [6] is: dose 30 p.o., HPbCD, 30 min pre-icilin.
Where [7] appears, read: dose 30 p.o., HPbCD, 60 min pre-icilin.
Setting [8] is: dose 10 p.o., HPbCD, 60 min pre-icilin.

Each structure is given as a SMILES string. Where two headings read alike, the source gives them in different places.

As a reminder, the ED50 is the midpoint of the dose-response relation. `O=C(O)c1ccc(S(=O)(=O)N(CCC(F)(F)F)c2sc3ccccc3c2Br)cc1` [Compound 271, N-(3-Bromo-benzo[b]thiophen-2-yl)-N-(3,3,3-trifluoro-propyl)-4-carboxy-benzenesulfonamide]: in assay [1], the inhibition at 0.2 µM is 98%. The 50% effective dose (ED50) in assay [2] (0.5 h, Water, 30 min pre-icilin) was 5.7 mg/kg. Moreover, the inhibition in vivo at 10 mg/kg in assay [3] (Rattus norvegicus, po, 1 h, 10 mg/kg p.o., HPbCD, pretreatment 1 hr, read-out: Percent Inhibition) was found to be 24%. For the same compound, in assay [3] (Rattus norvegicus, po, 1 h, 100 mg/kg p.o., HPbCD, pretreatment 1 hr, read-out: Percent Inhibition), the inhibition in vivo at 100 mg/kg worked out at 56%.

As a reminder, the IC50 is the concentration that inhibits the measured activity by half. Turning to `CCCCN(c1sc2ccccc2c1Br)S(=O)(=O)c1ccc(C(=O)O)cc1` [Compound 272, N-(3-Bromo-benzo[b]thiophen-2-yl)-N-(butyl)-4-carboxy-benzenesulfonamide], in assay [1], the concentration for half-maximal inhibition (IC50) turned out to be 6.2 nM and the inhibition at 0.2 µM was 97%. Besides, in assay [2] (setting [5]), the ED50 worked out at 22 mg/kg. Besides, the inhibition in vivo at 30 mg/kg in assay [3] (Rattus norvegicus, po, 1 h, HPbCD, pretreatment 1 hr, read-out: Percent Inhibition) stood at 31%.

For `O=C(O)c1ccc(S(=O)(=O)N(CC2CC2)c2sc3ccccc3c2Br)cc1` [Compound 273, N-(3-Bromo-benzo[b]thiophen-2-yl)-N-(cyclopropylmethyl)-4-carboxy-benzenesulfonamide], in assay [1], the concentration for half-maximal inhibition (IC50) is 18 nM and the inhibition at 0.2 µM was determined as 96%. Also, the median effective dose (ED50) in assay [2] (setting [5]) amounted to 53 mg/kg. For the same compound, the inhibition in vivo at 30 mg/kg in assay [3] (Rattus norvegicus, po, 0.5 h, HPbCD, pretreatment 0.5 hr, read-out: Percent Inhibition) is 49%.

As to `CCS(=O)(=O)N(CCN1CCOCC1)c1sc2ccccc2c1C(C)O` (stereo not shown) [Compound 284, N-(3-(1-Hydroxyethyl)benzo[b]thiophen-2-yl)-N-(2-morpholinoethyl)-ethanesulfonamide], the inhibition at 0.2 µM in assay [1] came to 15%. In assay [4], this compound yielded a 50% inhibitory concentration (IC50) of 8 nM. Further, in assay [4] (0.003 μM), the inhibition at 0.003 µM turned out to be 24%. Besides, the inhibition at 0.01 µM in assay [4] (0.01 μM) was determined as 71%.

Take `O=C(O)c1ccc(S(=O)(=O)N(CCCCC(F)(F)F)c2sc3ccccc3c2Br)cc1` [Compound 395, N-(3-Bromo-benzo[b]thiophen-2-yl)-N-(5,5,5-trifluoro-pentyl)-4-carboxy-benzenesulfonamide]: in assay [1], the 50% inhibitory concentration (IC50) was 3 nM and the inhibition at 0.2 µM is 101%. For the same compound, in assay [2] (1 h, Water, 60 min pre-icilin), the 50% effective dose (ED50) was 7.6 mg/kg. For the same compound, the inhibition in vivo at 30 mg/kg in assay [3] (Rattus norvegicus, po, 2 h, Water, pretreatment 2 hr, read-out: Percent Inhibition) turned out to be 23%.

As a reminder, the % Inhibition is the drop in the measured response relative to a control, in per cent. `CCCCN(c1sc2ccccc2c1C)S(=O)(=O)c1ccc(C(=O)[O-])cc1.[Na+]` [Compound 398, Sodium, N-(Butyl)-N-(3-methylbenzo[b]thiophen-2-yl)-4-carboxy-benzenesulfonamide]: in assay [1], the 50% inhibitory concentration (IC50) is 6 nM and the “% Inh @ 0.2 (μM)” value is listed as 101%. Moreover, the “% Inhibition” value in assay [2] (setting [6]) worked out at 7%.

Take `Cc1c(N(CCC2CC2)S(=O)(=O)c2ccc(C(=O)[O-])cc2)sc2ccccc12.[Na+]` [Compound 400, Sodium, N-(2-Cyclopropylethyl)-N-(3-methylbenzo[b]thiophen-2-yl)-4-carboxy-benzenesulfonamide]: the half-maximal inhibitory concentration (IC50) in assay [1] was found to be 5 nM. Besides, the “% Inh @ 0.2 (μM)” value in assay [1] was found to be 102%. For the same compound, in assay [2] (setting [6]), the “% Inhibition” value was 84%. For the same compound, the “Percent Inhibition” value in assay [3] (Water, pretreatment 1 hr) worked out at 40%; in assay [3] (Water, pretreatment 3 hr) it was 25%.

With `Cc1c(N(CCC(F)(F)F)S(=O)(=O)c2ccc(C(=O)[O-])cc2)sc2ccccc12.[Na+]` [Compound 409, Sodium, N-(3-Methylbenzo[b]thiophen-2-yl)-N-(3,3,3-trifluoro-propyl)-4-carboxy-benzenesulfonamide], in assay [1], the half-inhibitory concentration (IC50) was found to be 10 nM and the “% Inh @ 0.2 (μM)” value came out at 101%. The “% Inhibition” value in assay [2] (setting [6]) stood at 16%.

`O=S(=O)(c1ccc(-c2nnn[nH]2)cc1)N(CCCC(F)(F)F)c1sc2ccccc2c1Br` [Compound 429]: in assay [1], the IC50 turned out to be 17 nM and the “% Inh @ 0.2 (μM)” value stood at 93%. Besides, the “% Inhibition” value in assay [2] (setting [6]) was 41%. Also, the “% Inhibition” value in assay [2] (setting [7]) turned out to be 36%.

For `O=C(O)c1ccc(S(=O)(=O)N(CCC2CC2)c2sc3ccccc3c2Cl)cc1` [Compound 479], in assay [1], the IC50 was 8 nM and the “% Inh @ 0.2 (μM)” value turned out to be 100%. Moreover, the “% Inhibition” value in assay [2] (setting [7]) is 77%.

Consider `Cc1c(N(Cc2ccc(C(F)(F)F)c(F)c2)S(=O)(=O)c2ccc(C(=O)O)cc2)sc2ccccc12` [Compound 497, N-(3-Methyl-benzo[b]thiophen-2-yl)-N-(3-fluoro-4-trifluoromethyl-benzyl)-4-carboxy-benzenesulfonamide], for which, in assay [1], the IC50 came out at 0.4 nM and the inhibition at 0.2 µM is 101%. Further, the inhibition in vivo at 30 mg/kg in assay [3] (Rattus norvegicus, po, 4 h, Water, pretreatment 4 hr, read-out: Percent Inhibition) is 60%.

Consider `Cc1c(N(Cc2ccc3c(c2)OC(F)(F)O3)S(=O)(=O)c2ccc(C(=O)O)cc2)sc2ccccc12` [Compound 524, N-(3-Methyl-benzo[b]thiophen-2-yl)-N—(C-(2,2-difluoro-benzo[1,3]dioxol-5-yl)-methyl)-4-carboxy-benzenesulfonamide], for which the inhibition at 0.2 µM in assay [1] was found to be 102%. Besides, in assay [3] (Rattus norvegicus, po, 3 h, HPbCD, pretreatment 3 hr, read-out: Percent Inhibition), the inhibition in vivo at 30 mg/kg turned out to be 46%.

For `CC(C)(O)c1c(N(CCC2CC2)S(=O)(=O)c2ccc(C(=O)[O-])cc2)sc2ccccc12.[Na+]` [Compound 657, Sodium, N-(2-Cyclopropyl-ethyl)-N-(3-(1-hydroxy-1-methyl-ethyl)-benzo[b]thiophen-2-yl)-4-carboxy-benzenesulfonamide], in assay [1], the IC50 was determined as 7.5 nM and the “% Inh @ 0.2 (μM)” value is 101%. The “% Inhibition” value in assay [2] (setting [8]) came to 32%.

In the case of `CC(C)(O)c1c(N(CCCCC(F)(F)F)S(=O)(=O)c2ccc(C(=O)[O-])cc2)sc2ccccc12.[Na+]` [Compound 658, Sodium, N-(3-(1-Hydroxy-1-methyl-ethyl)-benzo[b]thiophen-2-yl)-N-(5,5,5-trifluoro-pentyl)-4-carboxy-benzenesulfonamide], in assay [1], the IC50 stood at 4.3 nM and the “% Inh @ 0.2 (μM)” value worked out at 101%. Further, in assay [2] (setting [8]), the “% Inhibition” value came to 63%.
